Where “and” joins values, the source holds several entries; their conditions need not be identical. Equal entries are not always repeated.
How the values were obtained:
[1] = test system: DNA-1 (5′-GTA AGA TGA TTC-3′ and 5′-GAA TCA TCT TAC-3′); format: binding; conditions: pH 7.2
LS-180 (colon cancer) = experiment: MTT cytotoxicity assay, LS-180; format: cell-based; conditions: Homo sapiens, LS180, 48 h, read-out: IC50 ± SD
A-549 (lung cancer) = experiment: MTT cytotoxicity assay, A-549; format: cell-based; conditions: Homo sapiens, A549, 48 h, read-out: IC50 ± SD
plasmid DNA pCR 2.1 = experiment: Electrophoretic mobility shift assay; format: binding; conditions: 100 ng plasmid, 0.1 nmol compound, 2 h at 37 °C, 1% agarose gel
[2] = test system: ARPE-19 (retinal epithelium), nontumor; experiment: MTT cytotoxicity assay, ARPE-19; format: cell-based; conditions: Homo sapiens, ARPE-19, 48 h, read-out: IC50 ± SD
HeLa (cervical cancer) = experiment: MTT cytotoxicity assay, HeLa; format: cell-based; conditions: Homo sapiens, 48 h, read-out: IC50 ± SD

With `COc1ccc2cc1Oc1ccc(cc1)C[C@H]1c3cc(c(OC)cc3CCN1C)Oc1c(OC)c(OC)cc3c1[C@H](C2)N(C)CC3` [tetrandrine, S,S-(+)-tetrandrine] the “Stern–Volmer constant (KSV)” value [1] was 7.34 × 10^3, the IC50 (LS-180 (colon cancer)) was 6.43 µg/mL and 10.3 µM and the IC50 (A-549 (lung cancer)) was 12.1 µg/mL and 19.4 µM. The “Effect on electrophoretic mobility of plasmid DNA” value (plasmid DNA pCR 2.1) was “reduce the mobility of the plasmid”, the IC50 [2] was 8.45 µg/mL and 13.6 µM and the IC50 (HeLa (cervical cancer)) was 16.6 µg/mL and 26.7 µM.
